For assay [1], the system named is HIF-1α. The conditions noted are these: cited from earlier work.
The test system of assay [2] is chick chorioallantoic membrane angiogenesis. Description: Chick embryo chorioallantoic membrane (CAM) assay. It counts as in vivo. Particulars: applied to ED 4.5 CAM for two days; Compound 12 0.1 μg and 1 μg. The method, then:
Figure 5 Compound 12 suppressed HIF-1α target gene expression, and confirmation of in vitro results via determination of effects on angiogenesis in vivo (A) A549 cells were treated with Compound 12 (at concentrations of 0 nM, 1 nM, 10 nM, and 100 nM) for 16 h. The mRNA levels of HIF-1α target genes were determined by semiquantitative RT-PCR. β-actin was used as an internal control. D. DMSO vehicle control. N, normoxia; H, hypoxia. (B) A549 cells were treated with serum-reduced culture media containing Compound 12 (at concentrations of 0 nM, 10 nM, and 100 nM) for 16 h. Media supernatant was collected, and secreted VEGF was determined by ELISA after removal of cellular debris. N, normoxia; H, hypoxia. **P < 0.01 versus hypoxia (H) DMSO (D)-treated control. (C) HUVECs were treated with Compound 12, at the indicated concentrations, in the presence of VEGF (20 ng/mL) for 24 h in 1% serum-containing media. […] Cells that migrated through the membrane (8 μm pore size) were stained with hematoxylin and eosin, pictured as shown in upper panel, and counted (graph). *P < 0.05, **P < 0.01 versus VEGF-treated control. […] (F) Compound 12 (0.1 μg and 1 μg dosages) and retinoic acid (RA, positive control) were applied to the ED 4.5 CAM for two days, neovessel formation from the large vessels was observed, and percentages of positive angiogenic eggs (from total eggs tested) were calculated. […]

Assay [3] concerns Lewis lung carcinoma (LLC) cells. Description: Lewis lung carcinoma allograft in C57BL/6J mice with immunohistochemistry. It counts as in vivo, mouse. The method, then: HIF-1α is synthesized by growth factor signaling pathways, such as those of EGFR [30] [31]. Inhibition of HIF-1α in its pathways of synthesis, as well as in its pathway of degradation, would seem to make for a more efficient anti-cancer/anti-angiogenesis treatment. To confirm this, we performed a tumor allogaft experiment using Lewis lung carcinoma (LLC) cells. 1 × 10^6 LLC cells were inoculated into the mouse flank subcutaneously (s.c.), and treatment with Compound 12 (5 mg/kg) and/or gefitinib (an EGFR inhibitor, 50 mg/kg), via intraperitoneal (i.p.) administration, was performed every other day for 20 days. At Day 20, mice were sacrificed and tumor tissue was fixed in formaldehyde for 1 h for further histological examination. […] To confirm the effect of Compound 12 on angiogenesis, we analyzed angiogenesis using the Matrigel plug assay. […] To confirm the effects of Compound 12 on anti-angiogenesis, we sectioned the tumor tissues to determine microvessel density (MSD) via immunohistochemistry (using CD31 antibody).
Figure 6 Compound 12 suppressed allogaft tumor growth and enhanced the effects of a chemotherapeutic agent (A, B) Lewis lung carcinoma cells were inoculated into flanks of C57BL/6J mice (Day 0). From two days after inoculation, mice were treated intraperitoneally with Compound 12 (5 mg/kg body weight) and gefitinib (50 mg/kg body weight), three times a week, for 18 days and then sacrificed. Tumor size (A) and tumor weight (B) were measured three times a week and on the final day, respectively. Tumor masses were photographed and shown in box below the graph. **P < 0.05 versus control group. (C) Matrigel was treated with DMSO, Compound 12 (100 nM), and gefitinib (5 μM) and inoculated in the flank of C57BL/6J mice. After 10 days matrigel plug was removed and photographed. The content of hemoglobin was quantified and graphed. (D) Tumor tissue sections (10 μm) indicated were stained with H&E and immunostained with anti-CD31 antibody to detect microvessel density; CD31+ cell percentages were then calculated and graphed. Scale bar, 100 μm. **P < 0.05 versus control group. (E) Images and quantitative comparisons (graph) for hypoxic regions, immunostained CA9 protein, and microvessels (CD31+ cells) in tumor center regions are shown. Scale bar, 100 μm. **P < 0.05 versus control group. (F) Images and quantitative comparisons (graph) for Ki67+ proliferating cells in tumor center regions are shown. Scale bar, 100 μm. **P < 0.05 versus control group.
We determined levels of hypoxia in tissues via: 1) antibodies against the hypoxic cell marker pimonidazole (PIMO), and 2) checking expression levels of carbonic anhydrase (CA9), a downstream target of HIF-1.
LLC cells (1 × 10^6) were injected subcutaneously into the flanks of 6-week-old C57BL/6J mice (Day 0)(SLC, Japan). Tumor size and body weight were measured 3 time a week. Tumor tissues were removed at day 20 after completion of injection of vehicle or drugs and fixed with 4% paraformaldehyde (PFA). After tissue processing for frozen sample preparation protocol, samples were embedded in OCT compound and frozen quickly by liquid nitrogen. Frozen blocks were cut into 10 μm sections and stained with hematoxylin and eosin (H&E) for light microscopy. Additional tissue sections for immunohistochemistry were blocked with 5% goat serum in PBST (0.03% Triton X-100 in PBS) and then incubated for 3 h at RT with following primary antibodies, anti-CD31 and anti-Ki67. To detect the hypoxic area in the tumors, Hypoxyprobe-1™ (60 mg/kg, Natural Pharmacia International) was iv injected 90 min before tissue fixation. Tumors were harvested, sectioned and stained with FITC-conjugated anti-Hypoxyprobe antibody.

Assay [4] has as its system angiogenesis (hemoglobin content of Matrigel plug). Description: Matrigel plug assay in C57BL/6J mice. It counts as in vivo, mouse. Particulars: Compound 12 100 nM, gefitinib 5 μM in Matrigel, 10 days. The protocol:
HIF-1α is synthesized by growth factor signaling pathways, such as those of EGFR [30] [31]. Inhibition of HIF-1α in its pathways of synthesis, as well as in its pathway of degradation, would seem to make for a more efficient anti-cancer/anti-angiogenesis treatment. To confirm this, we performed a tumor allogaft experiment using Lewis lung carcinoma (LLC) cells. 1 × 10^6 LLC cells were inoculated into the mouse flank subcutaneously (s.c.), and treatment with Compound 12 (5 mg/kg) and/or gefitinib (an EGFR inhibitor, 50 mg/kg), via intraperitoneal (i.p.) administration, was performed every other day for 20 days. […] To confirm the effect of Compound 12 on angiogenesis, we analyzed angiogenesis using the Matrigel plug assay. […]
Figure 6 Compound 12 suppressed allogaft tumor growth and enhanced the effects of a chemotherapeutic agent (A, B) Lewis lung carcinoma cells were inoculated into flanks of C57BL/6J mice (Day 0). […] Tumor size (A) and tumor weight (B) were measured three times a week and on the final day, respectively. […] The content of hemoglobin was quantified and graphed. (D) Tumor tissue sections (10 μm) indicated were stained with H&E and immunostained with anti-CD31 antibody to detect microvessel density; CD31+ cell percentages were then calculated and graphed. […] (F) Images and quantitative comparisons (graph) for Ki67+ proliferating cells in tumor center regions are shown. […]

Setting [5] is: read-out: IC50 of HIF-1α inhibitor.

Where two headings read alike, the source gives them in different places.

`CC(C)C[C@H](NC(=O)[C@H](Cc1ccccc1)NC(=O)c1cnccn1)B(O)O` [bortezomib]: the “concentrations inhibiting p300-HIF-1α binding / HIF-1α” value in assay [1] (prostate cancer cells) was 0.6 to 30 nM.

With `CS[C@H]1SC[C@H]2C(=O)N(C)[C@@H](C(C)C)C(=O)OC[C@@H](NC(=O)c3cnc4ccccc4n3)C(=O)N[C@@H](C)C(=O)N(C)[C@@H]1C(=O)N(C)[C@@H](C(C)C)C(=O)OC[C@@H](NC(=O)c1cnc3ccccc3n1)C(=O)N[C@@H](C)C(=O)N2C` [echinomycin], in assay [1] (reference not given, read-out: inhibitory concentration of HIF-1α inhibitor), the IC50 is 1.2 nM.

Turning to `OCc1ccc(-c2nn(Cc3ccccc3)c3ccccc23)o1` [YC-1, 3-(5′-hydroxymethyl-2′-furyl)-1-benzyl indazole], in assay [1] (setting [5]), the IC50 is 2000 to 50000 nM.

`CC1=C(/C=C/C(C)=C/C=C/C(C)=C/C(=O)O)C(C)(C)CCC1` [retinoic acid, reference compound]: the CAM angiogenesis entry in assay [2] is “significantly suppressed CAM angiogenesis”.

With `CC1(C)C=Cc2c(ccc(C(=O)/C=C/c3cccs3)c2O)O1` [SYP-5], the IC50 in assay [1] (setting [5]) was 10000 nM.

Turning to `COC(=O)c1ccc(O)c(NC(=O)COc2ccc(C34CC5CC(CC(C5)C3)C4)cc2)c1` [LW6], the IC50 in assay [1] (setting [5]) was 2500 to 3000 nM.

As to `COc1cc2ncnc(Nc3ccc(F)c(Cl)c3)c2cc1OCCCN1CCOCC1` [gefitinib, reference compound], in assay [3] (LLC allograft tumor sections), the “levels of PIMO and CA9 in tumors, single agent” value was “significantly diminished”; the “microvessel density (MSD), CD31, single agent” value is recorded as “significantly decreased MSD”. Also, the “cells expressing Ki-67 protein in tumors” value in assay [3] (LLC allograft tumor sections, single agent) was “significantly decreased”. In assay [3] (LLC allograft, C57BL/6J mice, i.p., Compound 12 5 mg/kg, gefitinib 50 mg/kg), the “tumor growth, single agent” value is given as “inhibited tumor growth significantly”. The “anti-angiogenic activity, Matrigel plug (hemoglobin content)” value in assay [4] is “anti-angiogenic activity was increased”.
